# Patent EP4417602A1, “SUBSTITUTED PYRAZOLE CARBOXAMIDES, SALTS THEREOF AND THEIR USE AS HERBICIDALLY ACTIVE SUBSTANCES” (Bayer AG, priority 2023, dated 2024)
# Legend:
# ECHCG [1] = test: A. Herbicidal pre-emergence action on harmful plants (Tables A); format: in vivo, Echinochloa crus-galli; details: visual grading after ca. 3 weeks vs untreated controls, 100% = plants have died off, 0% = as control plants
# Summary of the method: (§1)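 Greenhouse pre-emergence test: compound applied to the soil surface at 1280 g/ha or below, and herbicidal effect rated visually at ca. 3 weeks on a 0–100% scale against untreated plants.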
# LOLRI = test: as above; format: in vivo, Lolium rigidum; details: visual grading after ca. 3 weeks vs untreated controls, 100% = plants have died off, 0% = as control plants
# Summary of the method: as §1
# MATIN [2] = test: as above; format: in vivo, Matricaria inodora; details: visual grading after ca. 3 weeks vs untreated controls, 100% = plants have died off, 0% = as control plants
# Summary of the method: as §1
# SETVI = test: as above; format: in vivo, Setaria viridis; details: visual grading after ca. 3 weeks vs untreated controls, 100% = plants have died off, 0% = as control plants
# Summary of the method: as §1
# STEME = test: as above; format: in vivo, Stellaria media; details: visual grading after ca. 3 weeks vs untreated controls, 100% = plants have died off, 0% = as control plants
# Summary of the method: as §1
# POAAN [3] = test: as above; format: in vivo, Poa annua
# Summary of the method: as §1
# AMARE = test: as above; format: in vivo, Amaranthus retroflexus; details: application rate 1280 g/ha; visual grading after ca. 3 weeks vs untreated controls; 100% = plants have died off, 0% = as control plants
# Summary of the method: as §1
# ALOMY = test: as above; format: in vivo, Alopecurus myosuroides
# Summary of the method: as §1
# VERPE [4] = test: as above; format: in vivo, Veronica persica; details: application rate 1280 g/ha; Table A11
# Source text: Seeds of mono- and dicotyledonous weed plants were sown in plastic pots (double sowings with one species of mono- and one species of dicotyledonous weed plants per pot), in sandy loam, and covered with soil. The compounds according to the invention, formulated in the form of wettable powders (WP) or as emulsifiable concentrates (EC), were applied to the surface of the covering soil as aqueous suspension or emulsion, with the addition of 0.5% of an additive, at an application rate of 6001 of water per hectare (converted). Following treatment, the pots were placed in a greenhouse and kept under optimum growth conditions for the test plants. The visual grading of the damage to the test plants was carried out after ca. 3 weeks in comparison to untreated controls (herbicidal effect in percent (%): 100% effect = plants have died off, 0% effect = as control plants). Tables A1 to A12, below, show the effects of selected compounds of the general formula (I) according to table 1 on various harmful plants and an application rate corresponding to 1280 g/ha or below obtained by the experimental procedure mentioned above. Table A1: pre-emergence activity at 1280g/ha against ABUTH in %
# DIGSA [5] = test: as above; format: in vivo, Digitaria sanguinalis
# Summary of the method: as §1
# ABUTH = test: B. Herbicidal post-emergence action on harmful plants (Tables B); format: in vivo, Abutilon theophrasti; details: application rate 1280 g/ha; Table B1a
# Experimental: (§2) Seeds of mono- and dicotyledonous weed plants were placed in plastic pots in sandy loam soil (doubly sown with in each case one species of mono- or dicotyledonous weed plants per pot), covered with soil and cultivated in a greenhouse under controlled growth conditions. 2 to 3 weeks after sowing, the test plants were treated at the one-leaf stage. The compounds of the invention, formulated in the form of wettable powders (WP) or as emulsion concentrates (EC), were applied onto the green parts of the plants as aqueous suspension or emulsion with addition of 0.5% additive at a water application rate of 600 liters per hectare (converted). After the test plants had been kept in the greenhouse under optimum growth conditions for about 3 weeks, the activity of the preparations was rated visually in comparison to untreated controls. For example, 100% activity = the plants have died, 0% activity = like control plants. Tables B1 to B12, below, show the effects of selected compounds of the general formula (I) according to table 1 on various harmful plants and an application rate corresponding to 1280 g/ha or below obtained by the experimental procedure mentioned above. Table B1a: post-emergence activity at 1280g/ha against ABUTH in %
# ECHCG [6] = test: as above; format: in vivo, Echinochloa crus-galli; details: application rate 1280 g/ha; Table B2a
# Summary of the method: (§3)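 Activity was scored visually as % damage (100% = dead, 0% = like untreated) about 3 weeks after treatment. Plants at the one-leaf stage, 2-3 weeks old, were sprayed with WP/EC formulations plus 0.5% additive (600 L/ha water, up to 1280 g/ha). Plants were grown in sandy loam in a greenhouse.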
# MATIN [7] = test: as above; format: in vivo, Matricaria inodora
# Experimental: as §2
# POAAN [8] = test: as above; format: in vivo, Poa annua
# Summary of the method: as §3
# VERPE [9] = test: as above; format: in vivo, Veronica persica; details: application rate 1280 g/ha; Table B11a
# Summary of the method: as §3
# DIGSA [10] = test: as above; format: in vivo, Digitaria sanguinalis; details: application rate 1280 g/ha; Table B12a
# Experimental: as §2
# ZEAMX [11] = test: D. Pre-emergence effects on crop plants (Tables D); format: in vivo, Zea mays; details: crop plant
# Source text: (§4) Seeds of mono- and dicotyledonous weed plants and crop plants were sown, in plastic or organic planting pots, in sandy loam and covered with soil. The compounds according to the invention, formulated in the form of wettable powders (WP) or as emulsifiable concentrates (EC), were applied to the surface of the covering soil as aqueous suspension or emulsion, with the addition of 0.5% of an additive, at an application rate of 6001 of water/ha (converted).
# (§5) Following treatment, the pots were placed in a greenhouse and kept under optimum growth conditions for the test plants. The visual grading of the damage to the test plants was carried out after ca. 3 weeks in comparison to untreated controls (herbicidal effect in percent (%): 100% effect = plants have died off, 0% effect = as control plants).
# (§6) Tables D1 to D5 below show the effects of various compounds of the general formula (I) according to Table 1 on various crop plants and an application rate corresponding to 320 g/ha or below obtained by the experimental procedure mentioned above in Biological Examples, Section C. Table D1a: pre-emergence activity at 320g/ha against ZEAMX in %
# TRZAS [12] = test: D. Pre-emergence effects on crop plants (Tables D); format: in vivo, Triticum aestivum; details: crop plant
# Source text: as §4, §5, §6
# GLXMA [13] = test: D. Pre-emergence effects on crop plants (Tables D); format: in vivo, Glycine max; details: crop plant
# Source text: as §4, §5, §6
# BRSNW [14] = test: D. Pre-emergence effects on crop plants (Tables D); format: in vivo, Brassica napus; details: crop plant
# Source text: as §4, §5, §6
# ZEAMX [15] = test: F. Post-emergence effects on crop plants (Tables F); format: in vivo, Zea mays; details: crop plant
# Source text: (§7) Seeds of mono- and dicotyledonous weed plants and crop plants were sown, in plastic or organic planting pots, in sandy loam, covered with soil and grown in a greenhouse under controlled growth conditions. 2 to 3 weeks after sowing, the test plants were sprayed in the single-leaf stage. The compounds according to the invention, formulated in form of wettable powders (WP) or as emulsifiable concentrates (EC), were sprayed onto the green plant parts as aqueous suspension or emulsion, with the addition of 0.5% of an additive, at an application rate of 6001 of water/ha (converted). The test plants were placed in the greenhouse for ca. 3 weeks under optimum growth conditions, and then the effect of the preparations was assessed visually in comparison with untreated controls (herbicidal effect in percent (%): 100% effect = plants have died off, 0% effect = as control plants). Tables F1 to F5 below show the effects of selected compounds of the general formula (I) according to table 1 on various crop plants and an application rate corresponding to 320 g/ha or below obtained by the experimental procedure mentioned above. Table […]: post-emergence activity at 320g/ha against ZEAMX in %
# TRZAS [16] = test: as above; format: in vivo, Triticum aestivum; details: crop plant
# Source text: as §7
# GLXMA [17] = test: as above; format: in vivo, Glycine max; details: application rate 320 g/ha, crop plant
# Source text: as §7
# BRSNW [18] = test: as above; format: in vivo, Brassica napus; details: application rate 320 g/ha, crop plant
# Source text: as §7
compound,measurement,setting,value
COCc1nn(C)cc1C(=O)N1CCCC1Cc1cccc(F)c1F (racemic) [Example I-077],pre-emergence activity against ECHCG,ECHCG [1]; application rate 80 g/ha,90%
same,pre-emergence activity against ECHCG,ECHCG [1]; application rate 320 g/ha,90%
same,pre-emergence activity against ECHCG,ECHCG [1]; application rate 1280 g/ha,100%
same,pre-emergence activity against LOLRI,LOLRI; application rate 320 g/ha,90%
same,pre-emergence activity against LOLRI,LOLRI; application rate 1280 g/ha,100%
same,pre-emergence activity against MATIN,MATIN [2]; application rate 320 g/ha,90%
same,pre-emergence activity against MATIN,MATIN [2]; application rate 1280 g/ha,90%
same,pre-emergence activity against SETVI,SETVI; application rate 320 g/ha,90%
same,pre-emergence activity against SETVI,SETVI; application rate 1280 g/ha,90%
same,pre-emergence activity against STEME,STEME; application rate 80 g/ha,90%
same,pre-emergence activity against STEME,STEME; application rate 320 g/ha,90%
same,pre-emergence activity against STEME,STEME; application rate 1280 g/ha,90%
same,pre-emergence activity against POAAN,"POAAN [3]; application rate 80 g/ha, Table A7c",100%
same,pre-emergence activity against POAAN,"POAAN [3]; application rate 320 g/ha, Table A7b",100%
same,pre-emergence activity against POAAN,"POAAN [3]; application rate 1280 g/ha, visual grading after ca. 3 weeks vs untreated controls, 100% = plants have died off, 0% = as control plants",100%
same,pre-emergence activity against AMARE,AMARE,90%
same,pre-emergence activity against ALOMY,"ALOMY; application rate 320 g/ha, Table A9b",90%
same,pre-emergence activity against ALOMY,"ALOMY; application rate 1280 g/ha, Table A9a",90%
same,pre-emergence activity against VERPE,VERPE [4],90%
same,pre-emergence activity against DIGSA,"DIGSA [5]; application rate 320 g/ha, Table A12b",100%
same,pre-emergence activity against DIGSA,"DIGSA [5]; application rate 1280 g/ha, Table A12a",100%
same,post-emergence activity against ABUTH,ABUTH,90%
same,post-emergence activity against ECHCG,ECHCG [6],90%
same,post-emergence activity against MATIN,"MATIN [7]; application rate 320 g/ha, Table B4b",90%
same,post-emergence activity against MATIN,"MATIN [7]; application rate 1280 g/ha, Table B4a",90%
same,post-emergence activity against POAAN,"POAAN [8]; application rate 320 g/ha, Table B7b",90%
same,post-emergence activity against POAAN,"POAAN [8]; application rate 1280 g/ha, Table B7a",90%
same,post-emergence activity against VERPE,VERPE [9],90%
same,post-emergence activity against DIGSA,DIGSA [10],90%
Cn1cc(C(=O)N2CCCC2Cc2ccccc2F)c(COCC2COC2)n1 (racemic) [Example I-091],pre-emergence activity against ZEAMX,"ZEAMX [11]; application rate 80 g/ha, Table D1b",0%
same,pre-emergence activity against ZEAMX,"ZEAMX [11]; application rate 320 g/ha, Table D1a",0%
same,pre-emergence activity against TRZAS,"TRZAS [12]; application rate 80 g/ha, Table D2b",0%
same,pre-emergence activity against TRZAS,"TRZAS [12]; application rate 320 g/ha, Table D2a",0%
same,pre-emergence activity against GLXMA,"GLXMA [13]; application rate 80 g/ha, Table D4b",0%
same,pre-emergence activity against GLXMA,"GLXMA [13]; application rate 320 g/ha, Table D4a",0%
same,pre-emergence activity against BRSNW in %,BRSNW [14]; application rate 80 g/ha,0%
same,pre-emergence activity against BRSNW in %,BRSNW [14]; application rate 320 g/ha,0%
same,post-emergence activity against ZEAMX in %,ZEAMX [15]; application rate 80 g/ha,0%
same,post-emergence activity against ZEAMX in %,ZEAMX [15]; application rate 320 g/ha,0%
same,post-emergence activity against TRZAS in %,TRZAS [16]; application rate 80 g/ha,0%
same,post-emergence activity against TRZAS in %,TRZAS [16]; application rate 320 g/ha,0%
same,post-emergence activity against GLXMA in %,GLXMA [17],0%
same,post-emergence activity against BRSNW in %,BRSNW [18],0%
